Test results as given in patent US20150105252A1, “SUBSTITUTED PYRAZOLES AS HERBICIDES” (E I DU PONT DE NEMOURS AND COMPANY, priority 2013, published 2015).

Assays:
waterhemp = experiment: Test C preemergence; format: in vivo, Amaranthus rudis; settings: for Plant response rating (scale of 0 to 100), Waterhemp: Preemergence; for Waterhemp plant response rating / Plant response rating, Waterhemp: preemergence; for Plant response rating, Waterhemp: 125 g ai/ha, scale 0 to 100, 0 = no effect, 100 = complete control
Procedure, shortened: (§1)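 Seeds sown in loam–sand blend and treated preemergence with test chemicals in non-phytotoxic solvent with surfactant; postemergence plants in peat-based medium, treated at 2–18 cm (1- to 4-leaf stage). Greenhouse 13 to 15 days, then visual rating versus controls, 0 (no effect) to 100 (complete control).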

velvetleaf [1] = experiment: Test C postemergence; format: in vivo, Abutilon theophrasti; settings: for Plant response rating (scale of 0 to 100 where 0 is no effect and 100 is complete control), Velvetleaf: Postemergence, 31 g ai/ha, visually evaluated after 13 to 15 days; for Velvetleaf plant response rating / Plant response rating, Velvetleaf: postemergence; for Velvetleaf plant response rating: scale 0 to 100
Procedure, shortened: as §1

galium = experiment: Test C postemergence; format: in vivo, Galium aparine; settings: for Plant response rating (scale of 0 to 100 where 0 is no effect and 100 is complete control), Galium: Postemergence, 31 g ai/ha, visually evaluated after 13 to 15 days; for Galium plant response rating / Plant response rating, Galium: postemergence; for Galium plant response rating: 62 g ai/ha, scale 0 to 100
Procedure, shortened: as §1

foxtail, giant [2] = experiment: Test A postemergence; format: in vivo, Setaria faberii
Procedure, shortened: (§2)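 Pre- and postemergence greenhouse test; loam+sand; cpd in non-phytotox. solvent/surfactant; post at 1–2 leaf, 2–10 cm; visual score ~10 d, 0 = none, 100 = complete control.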

nutsedge, yellow = experiment: Test C preemergence; format: in vivo, Cyperus esculentus; settings: for Plant response rating (scale of 0 to 100), Nutsedge, Yellow: Preemergence; for Nutsedge, Yellow plant response rating / Plant response rating, Nutsedge, Yellow: preemergence; for Plant response rating, Nutsedge, Yellow: 125 g ai/ha, scale 0 to 100, 0 = no effect, 100 = complete control
Procedure, shortened: as §1

velvetleaf [3] = experiment: Test A preemergence; format: in vivo, Abutilon theophrasti; settings: preemergence
Procedure, shortened: as §2

lambsquarters = experiment: Test C preemergence; format: in vivo, Chenopodium album; settings: for Plant response rating (scale of 0 to 100), Lambsquarters: Preemergence; for Lambsquarters plant response rating / Plant response rating, Lambsquarters: preemergence; for Plant response rating, Lambsquarters: 125 g ai/ha, scale 0 to 100, 0 = no effect, 100 = complete control
Procedure, shortened: as §1

crabgrass, large [4] = experiment: Test C postemergence; format: in vivo, Digitaria sanguinalis; settings: for Plant response rating (scale of 0 to 100 where 0 is no effect and 100 is complete control), Crabgrass, Large: Postemergence, 31 g ai/ha, visually evaluated after 13 to 15 days; for Crabgrass, Large plant response rating / Plant response rating, Crabgrass, Large: postemergence; for Crabgrass, Large plant response rating: 62 g ai/ha, scale 0 to 100
Procedure, shortened: as §1

morningglory = experiment: Test A postemergence; format: in vivo, Ipomoea spp.
Procedure, shortened: as §2

crabgrass, large [5] = experiment: Test A preemergence; format: in vivo, Digitaria sanguinalis; settings: preemergence
Procedure, shortened: as §2

rice = experiment: Test B flood; format: in vivo, Oryza sativa; settings: 250 g ai/ha, visual rating on 0 to 100 scale (0 no effect, 100 complete control), 13 to 15 days
Procedure, shortened: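 Visual ratings on a 0–100 scale, where 0 means no effect and 100 means complete control, were assigned by comparison with controls 13 to 15 days after treatment. Compounds went into paddy water over 2-leaf plants flooded to 3 cm.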

corn = experiment: Test C postemergence; format: in vivo, Zea mays; settings: for Plant response rating (scale of 0 to 100 where 0 is no effect and 100 is complete control), Corn: Postemergence, 31 g ai/ha, visually evaluated after 13 to 15 days; for Corn plant response rating / Plant response rating, Corn: postemergence; for Corn plant response rating: 62 g ai/ha, scale 0 to 100
Procedure, shortened: as §1

foxtail, giant [6] = experiment: Test A preemergence; format: in vivo, Setaria faberii; settings: preemergence
Procedure, shortened: as §2

barnyardgrass = experiment: Test C preemergence; format: in vivo, Echinochloa crus-galli; settings: for Plant response rating (scale of 0 to 100), Barnyardgrass: Preemergence; for Barnyardgrass plant response rating / Plant response rating, Barnyardgrass: preemergence; for Plant response rating, Barnyardgrass: 125 g ai/ha, scale 0 to 100, 0 = no effect, 100 = complete control
Procedure, shortened: as §1

[7] = 31 g ai/ha, visual rating, scale 0 to 100 (0 no effect, 100 complete control), 13 to 15 days
[8] = 62 g ai/ha, scale 0 to 100 (0 no effect, 100 complete control), 13 to 15 days
[9] = 250 g ai/ha, scale 0 to 100 (0 no effect, 100 complete control)
[10] = 125 g ai/ha, scale 0 to 100, 0 no effect, 100 complete control
[11] = Postemergence, 500 g ai/ha, 0 to 100 scale (0 no effect, 100 complete control)
[12] = postemergence, 125 g ai/ha, about 10 days, visual rating on 0 to 100 scale (0 no effect, 100 complete control)
[13] = 125 g ai/ha, visual injury, 0 to 100 scale, approx. 10 days
[14] = 500 g ai/ha, visual injury after approx. 10 days, 0 to 100 scale (0 no effect, 100 complete control)
[15] = 31 g ai/ha, scale 0 to 100 (0 no effect, 100 complete control), 13 to 15 days
[16] = 250 g ai/ha, scale 0 to 100, 0 is no effect, 100 is complete control

CCNC(=O)c1cc(CC)n(Cc2ccnc(OC(F)F)c2)n1 [Compound 130]
Plant response rating (scale of 0 to 100), Waterhemp (waterhemp; 250 g ai/ha): 100
Waterhemp plant response rating (waterhemp; [7]): 100
Waterhemp plant response rating (waterhemp; [8]): 100
Plant response rating, Waterhemp (waterhemp; 13 to 15 days): 100
Plant response rating (scale of 0 to 100 where 0 is no effect and 100 is complete control), Velvetleaf (velvetleaf [1]): 5
Velvetleaf plant response rating (velvetleaf [1]; 62 g ai/ha): 10
Plant response rating, Velvetleaf (velvetleaf [1]; [9]): 60
Plant response rating, Velvetleaf (velvetleaf [1]; [10]): 50
Plant response rating (scale of 0 to 100 where 0 is no effect and 100 is complete control), Galium (galium): 60
Galium plant response rating (galium): 65
Plant response rating, Galium (galium; [9]): 75
Plant response rating, Galium (galium; [10]): 65
Foxtail, Giant plant response rating (foxtail, giant [2]; [11]): 90
Foxtail, Giant plant response rating (foxtail, giant [2]; [12]): 60
Plant response rating (scale of 0 to 100), Nutsedge, Yellow (nutsedge, yellow; 250 g ai/ha): 75
Nutsedge, Yellow plant response rating (nutsedge, yellow; [7]): 25
Nutsedge, Yellow plant response rating (nutsedge, yellow; [8]): 65
Plant response rating, Nutsedge, Yellow (nutsedge, yellow; 13 to 15 days): 75
Velvetleaf plant response rating (velvetleaf [3]; [13]): 70
Velvetleaf plant response rating (velvetleaf [3]; [14]): 100
Plant response rating (scale of 0 to 100), Lambsquarters (lambsquarters; 250 g ai/ha): 98
Lambsquarters plant response rating (lambsquarters; [7]): 85
Lambsquarters plant response rating (lambsquarters; [8]): 100
Plant response rating, Lambsquarters (lambsquarters; 13 to 15 days): 100
Plant response rating (scale of 0 to 100 where 0 is no effect and 100 is complete control), Crabgrass, Large (crabgrass, large [4]): 5
Crabgrass, Large plant response rating (crabgrass, large [4]): 5
Plant response rating, Crabgrass, Large (crabgrass, large [4]; [9]): 25
Plant response rating, Crabgrass, Large (crabgrass, large [4]; [10]): 10
Morningglory plant response rating (morningglory; [11]): 100
Morningglory plant response rating (morningglory; [12]): 90
Crabgrass, Large plant response rating (crabgrass, large [5]; [13]): 100
Crabgrass, Large plant response rating (crabgrass, large [5]; [14]): 100
Plant response rating, Rice (rice): 15
Plant response rating (scale of 0 to 100 where 0 is no effect and 100 is complete control), Corn (corn): 5
Corn plant response rating (corn): 5
Plant response rating, Corn (corn; [9]): 25
Plant response rating, Corn (corn; [10]): 5
Foxtail, Giant plant response rating (foxtail, giant [6]; [13]): 100
Foxtail, Giant plant response rating (foxtail, giant [6]; [14]): 100
Plant response rating (scale of 0 to 100), Barnyardgrass (barnyardgrass; 250 g ai/ha): 100
Barnyardgrass plant response rating (barnyardgrass; [15]): 50
Barnyardgrass plant response rating (barnyardgrass; [8]): 85
Plant response rating, Barnyardgrass (barnyardgrass; 13 to 15 days): 100

CCCNC(=O)c1cc(CC)n(Cc2ccnc(OC(F)F)c2)n1 [Compound 132]
Plant response rating (scale of 0 to 100), Waterhemp (waterhemp; 250 g ai/ha): 100
Waterhemp plant response rating (waterhemp; [7]): 100
Waterhemp plant response rating (waterhemp; [8]): 100
Plant response rating, Waterhemp (waterhemp; 13 to 15 days): 100
Plant response rating (scale of 0 to 100 where 0 is no effect and 100 is complete control), Velvetleaf (velvetleaf [1]): 5
Velvetleaf plant response rating (velvetleaf [1]; 62 g ai/ha): 15
Plant response rating, Velvetleaf (velvetleaf [1]; [9]): 50
Plant response rating, Velvetleaf (velvetleaf [1]; [10]): 35
Plant response rating (scale of 0 to 100 where 0 is no effect and 100 is complete control), Galium (galium): 55
Galium plant response rating (galium): 60
Plant response rating, Galium (galium; [9]): 75
Plant response rating, Galium (galium; [10]): 60
Foxtail, Giant plant response rating (foxtail, giant [2]; [11]): 90
Foxtail, Giant plant response rating (foxtail, giant [2]; [12]): 80
Plant response rating (scale of 0 to 100), Nutsedge, Yellow (nutsedge, yellow; 250 g ai/ha): 70
Nutsedge, Yellow plant response rating (nutsedge, yellow; [7]): 35
Nutsedge, Yellow plant response rating (nutsedge, yellow; [8]): 55
Plant response rating, Nutsedge, Yellow (nutsedge, yellow; 13 to 15 days): 80
Velvetleaf plant response rating (velvetleaf [3]; [13]): 100
Velvetleaf plant response rating (velvetleaf [3]; [14]): 100
Plant response rating (scale of 0 to 100), Lambsquarters (lambsquarters; 250 g ai/ha): 100
Lambsquarters plant response rating (lambsquarters; [7]): 100
Lambsquarters plant response rating (lambsquarters; [8]): 100
Plant response rating, Lambsquarters (lambsquarters; 13 to 15 days): 100
Plant response rating (scale of 0 to 100 where 0 is no effect and 100 is complete control), Crabgrass, Large (crabgrass, large [4]): 5
Crabgrass, Large plant response rating (crabgrass, large [4]): 5
Plant response rating, Crabgrass, Large (crabgrass, large [4]; [9]): 55
Plant response rating, Crabgrass, Large (crabgrass, large [4]; [10]): 75
Morningglory plant response rating (morningglory; [11]): 100
Morningglory plant response rating (morningglory; [12]): 90
Crabgrass, Large plant response rating (crabgrass, large [5]; [13]): 100
Crabgrass, Large plant response rating (crabgrass, large [5]; [14]): 100
Plant response rating, Rice (rice): 35
Plant response rating (scale of 0 to 100 where 0 is no effect and 100 is complete control), Corn (corn): 5
Corn plant response rating (corn): 5
Plant response rating, Corn (corn; [9]): 20
Plant response rating, Corn (corn; [10]): 75
Foxtail, Giant plant response rating (foxtail, giant [6]; [13]): 100
Foxtail, Giant plant response rating (foxtail, giant [6]; [14]): 100
Plant response rating (scale of 0 to 100), Barnyardgrass (barnyardgrass; 250 g ai/ha): 100
Barnyardgrass plant response rating (barnyardgrass; [15]): 95
Barnyardgrass plant response rating (barnyardgrass; [8]): 100
Plant response rating, Barnyardgrass (barnyardgrass; 13 to 15 days): 100

CCc1cc(C(=O)NC(C)C)nn1Cc1ccnc(C(F)(F)F)c1 [Compound 139]
Waterhemp plant response rating (waterhemp; [7]): 85
Waterhemp plant response rating (waterhemp; [8]): 100
Plant response rating, Waterhemp (waterhemp; 13 to 15 days): 100
Waterhemp plant response rating (waterhemp; [16]): 100
Plant response rating (scale of 0 to 100 where 0 is no effect and 100 is complete control), Velvetleaf (velvetleaf [1]): 10
Plant response rating, Velvetleaf (velvetleaf [1]; [9]): 25
Velvetleaf plant response rating (velvetleaf [1]): 15
Plant response rating (scale of 0 to 100 where 0 is no effect and 100 is complete control), Galium (galium): 50
Galium plant response rating (galium): 60
Plant response rating, Galium (galium; [9]): 70
Plant response rating, Galium (galium; [10]): 60
Foxtail, Giant plant response rating (foxtail, giant [2]; [11]): 90
Foxtail, Giant plant response rating (foxtail, giant [2]; [12]): 90
Nutsedge, Yellow plant response rating (nutsedge, yellow; [7]): 15
Nutsedge, Yellow plant response rating (nutsedge, yellow; [8]): 10
Plant response rating, Nutsedge, Yellow (nutsedge, yellow; 13 to 15 days): 35
Nutsedge, Yellow plant response rating (nutsedge, yellow; [16]): 50
Velvetleaf plant response rating (velvetleaf [3]; [13]): 30
Velvetleaf plant response rating (velvetleaf [3]; [14]): 100
Lambsquarters plant response rating (lambsquarters; [7]): 35
Lambsquarters plant response rating (lambsquarters; [8]): 85
Plant response rating, Lambsquarters (lambsquarters; 13 to 15 days): 100
Lambsquarters plant response rating (lambsquarters; [16]): 100
Plant response rating (scale of 0 to 100 where 0 is no effect and 100 is complete control), Crabgrass, Large (crabgrass, large [4]): 10
Crabgrass, Large plant response rating (crabgrass, large [4]): 10
Plant response rating, Crabgrass, Large (crabgrass, large [4]; [9]): 20
Plant response rating, Crabgrass, Large (crabgrass, large [4]; [10]): 15
Morningglory plant response rating (morningglory; [11]): 100
Morningglory plant response rating (morningglory; [12]): 60
Crabgrass, Large plant response rating (crabgrass, large [5]; [13]): 100
Crabgrass, Large plant response rating (crabgrass, large [5]; [14]): 100
Plant response rating, Rice (rice): 50
Plant response rating (scale of 0 to 100 where 0 is no effect and 100 is complete control), Corn (corn): 5
Corn plant response rating (corn): 10
Plant response rating, Corn (corn; [9]): 20
Plant response rating, Corn (corn; [10]): 15
Foxtail, Giant plant response rating (foxtail, giant [6]; [13]): 100
Foxtail, Giant plant response rating (foxtail, giant [6]; [14]): 100
Barnyardgrass plant response rating (barnyardgrass; [15]): 40
Barnyardgrass plant response rating (barnyardgrass; [8]): 98
Plant response rating, Barnyardgrass (barnyardgrass; 13 to 15 days): 100
Barnyardgrass plant response rating (barnyardgrass; [16]): 100
